Source: PMC5487955, “Microarray Selection of Cooperative Peptides for Modulating Enzyme Activities” (Microarrays, 2017)
Where “and” joins values, the source holds several entries; their conditions need not be identical. Equal values may be shown once. Where no end group is shown, it is not given here.

Experiments:
β-galactosidase (β-Gal) [1] = molecular target: T1, β-galactosidase (β-Gal) (Escherichia coli, UniProt P00722); settings: negative control selection
Source text: Microarrays of 10,000 20-mer peptides were produced by Arizona State University as previously reported [14, 17]. […] Each polypeptide was 20 residues in length, with 17 positions randomly chosen from a set of 19 amino acids (excluding cysteine). The C-terminal 3 positions of each peptide was a glycine–serine–cysteine (GSC) linker, which was used for conjugating peptides to amino-silane surfaces via a maleimide linker, sulfosuccinimidyl 4-(N-maleimidomethyl)cyclohexane-1-carboxylate (Sulfo-SMCC; Pierce, Rockford, IL, USA). The array printing was performed by using a Telechem Nanoprint60 (Arrayit, Sunnyvale, CA, USA) hat spotted approximately 500 pL of 1 mg/mL peptide per feature on glass slides with 48 Telechem series SMP2-style 946 titanium pins (Arrayit).
Binding of enzymes on the microarray was performed as previously described [17, 18]. […] Then, the array was incubated with a solution containing 5 nM Alexa 647-labeled β-Gal or PEP-1–β-Gal complex for two hours, allowing the enzyme to bind with peptides on the array surface. After washing off unbound enzymes, the array was read by a standard array reader (PerkinElmer, Waltham, MA, USA) with color scanning using 647 nm laser lines.

β-galactosidase (β-Gal) [2] = molecular target: T1, β-galactosidase (β-Gal); test: biochemical; set-up: purchased Sigma (St. Louis, MO, USA); settings: for reduction of enzyme activity, combination with PEP-1: 100 μM NEW peptide + 2 μM PEP-1; for reduction of enzyme activity, NEW peptide alone: 100 μM peptide by itself, pH 7.4 10 mM potassium phosphate, 100 μM MgCl2, 25 °C, at least three replicates
Experimental: Solution-based enzyme assays were performed on SpectraMax M5 96 well plate readers (Molecular Device, Sunnyvale, CA, USA) as described previously. Simply explained, peptides were first incubated with enzyme for 20 min, and then the substrate solution was added into the wells to measure the enzyme activity. At least three replicates per peptide were included. The β-gal-catalyzed hydrolysis of RBG was fluorescently monitored at 590 nm (resorufin) with the excitation at 540 nm. For a typical assay, ~0.3 nM or 1 nM β-Gal was incubated with peptides and 100 μM RBG substrate in pH 7.4, 10 mM potassium phosphate buffer with 100 μM MgCl2 at 25 °C. The reaction rate was determined by the initial velocity of the linear reaction. The percentage of reduced/inhibited enzyme activity was calculated as below: Percentage of reduced activity=(1−Inhibited activity/Noninhibited activity)×100% […]
Figure S1. Titration of IC 50 for PEP-1. The IC 50 of peptide inhibition is measured at a substrate concentration of 100 μM RBG (resorufin β -D-galactopyranoside) and β-Gal concentration of 150 μg/L, 25 °C. All tests included three replicates. Error bar: range of data.
The IC50 of each inhibitor was determined by fitting the concentration vs. inhibition curve to the function ‘Fit LogIC50’ as defined in the program GraphPad Prism 7 using the fitting equation “Y=Bottom+(Top-Bottom)/(1+10^(X-LogIC50))”. The “Bottom” term was constrained to 1, which represents the maximal inhibition of 100%. The “Top” term was constrained to 0, which represents the minimal inhibition of 0%.
The enzyme inhibition was also quantitatively characterized using the inhibition percentage that was calculated using the following equation:
Inhibition Percentage = (Activity uninhibited – Activity inhibited)/ Activity uninhibited × 100%
(1 picture or pasted object on this page, not shown here)

[3] = system: crosslinked PEP-1–β-Gal complex; test: Peptide microarray binding of crosslinked PEP-1–β-Gal complex; settings: negative control selection
Experimental: Firstly, 20 μM PEP-1 (sequence of “RVFKRKRWLHVSRYYFGSC”) was incubated with 30 nM β-Gal for 20 min, and then 0.5% formaldehyde was added to the peptide/enzyme mixture. It was then incubated for another 20 min in order to crosslink the peptide with enzyme. The entire mixture was then diluted by 100 × in phosphate buffer to bring the overall peptide concentration as low as 200 nM.

[4] = system: inhibited PEP-1–β-Gal complex; test: Recovery of PEP-1 inhibited enzyme activity; assay type: biochemical; settings: 320 μM NEG added, incubated another 20 min; 1 nM β-Gal preincubated with PEP-1 for 20 min
Experimental: Solution-based enzyme assays were performed on SpectraMax M5 96 well plate readers (Molecular Device, Sunnyvale, CA, USA) as described previously. Simply explained, peptides were first incubated with enzyme for 20 min, and then the substrate solution was added into the wells to measure the enzyme activity. At least three replicates per peptide were included. The β-gal-catalyzed hydrolysis of RBG was fluorescently monitored at 590 nm (resorufin) with the excitation at 540 nm. For a typical assay, ~0.3 nM or 1 nM β-Gal was incubated with peptides and 100 μM RBG substrate in pH 7.4, 10 mM potassium phosphate buffer with 100 μM MgCl2 at 25 °C. The reaction rate was determined by the initial velocity of the linear reaction. The percentage of reduced/inhibited enzyme activity was calculated as below: Percentage of reduced activity=(1−Inhibited activity/Noninhibited activity)×100%
For recovery of PEP-1 inhibited enzyme activity, 1 nM β-Gal was first incubated with PEP-1 for 20 min for inhibiting activity, and then NEG peptide was added to the solution and incubated for another 20 min before the activity assay.

[5] = 100 μM RBG, pH 7.4, 25 °C, 20 min preincubation
[6] = 100 μM RBG, 20 min preincubation

T1 sequence (P00722 2-1024): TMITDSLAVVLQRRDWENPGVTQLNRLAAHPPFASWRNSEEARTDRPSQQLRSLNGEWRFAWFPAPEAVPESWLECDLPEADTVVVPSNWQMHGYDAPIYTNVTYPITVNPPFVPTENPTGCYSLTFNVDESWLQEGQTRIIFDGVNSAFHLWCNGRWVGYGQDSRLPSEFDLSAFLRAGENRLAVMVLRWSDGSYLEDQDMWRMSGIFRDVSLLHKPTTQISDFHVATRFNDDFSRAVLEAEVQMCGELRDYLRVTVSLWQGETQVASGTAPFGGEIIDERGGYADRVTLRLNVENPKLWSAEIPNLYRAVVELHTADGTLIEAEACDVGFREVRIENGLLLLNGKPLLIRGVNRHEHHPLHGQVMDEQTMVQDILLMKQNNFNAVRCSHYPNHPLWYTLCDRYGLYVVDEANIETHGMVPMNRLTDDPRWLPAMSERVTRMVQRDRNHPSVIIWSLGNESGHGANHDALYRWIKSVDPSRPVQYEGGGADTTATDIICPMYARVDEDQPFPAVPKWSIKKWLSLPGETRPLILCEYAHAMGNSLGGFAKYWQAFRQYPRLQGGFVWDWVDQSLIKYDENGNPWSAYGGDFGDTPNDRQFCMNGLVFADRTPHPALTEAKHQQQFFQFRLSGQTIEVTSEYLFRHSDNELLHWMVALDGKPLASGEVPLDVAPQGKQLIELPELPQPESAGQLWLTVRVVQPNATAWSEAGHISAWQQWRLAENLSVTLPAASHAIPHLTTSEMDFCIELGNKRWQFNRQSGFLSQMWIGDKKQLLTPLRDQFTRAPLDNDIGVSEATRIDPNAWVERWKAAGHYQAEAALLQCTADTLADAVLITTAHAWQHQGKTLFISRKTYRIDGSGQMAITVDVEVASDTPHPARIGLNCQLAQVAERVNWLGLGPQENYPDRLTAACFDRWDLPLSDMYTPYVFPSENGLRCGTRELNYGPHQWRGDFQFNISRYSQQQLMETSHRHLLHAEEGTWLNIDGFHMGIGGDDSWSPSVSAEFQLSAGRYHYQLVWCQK

Sequence | reduction of enzyme activity, combination with PEP-1 (β-galactosidase (β-Gal) [2]; [5]) | reduction of enzyme activity, NEW peptide alone (β-galactosidase (β-Gal) [2]; [6]) | other results
ESVPTDLPMDTMEGKNWGSC [NEG, negatively-charged negative control peptide] | – | – | binding to β-Gal on microarray (in words) (β-galactosidase (β-Gal) [1]): neither bound to β-Gal; inhibition of β-Gal activity, NEG combined with PEP-1 (β-galactosidase (β-Gal) [2]; 10 μM NEG + 2 μM PEP-1): 24%; inhibition of β-Gal, NEG combined with PEP-1 (in words) (β-galactosidase (β-Gal) [2]; 100 μM NEG + 2 μM PEP-1): almost lost the ability to inhibit β-Gal; binding to crosslinked PEP-1–β-gal complex on microarray (in words) [3]: did not show strong binding; activity of inhibited PEP-1–β-Gal complex, % of uninhibited enzyme [4]: ~45%
GVSHLHWIKMLNETTVMGSC [NEW-1] | ~ 70% | less than 10% | –
HISPQHMMAYSPKAFDYGSC [NEW-2] | ~ 73% | ~ 12% | –
MHNHAFNDNHGRGPTAWGSC [NEW-4] | 91% | ~ 26% | –
RVFKRKRWLHVSRYYFGSC [PEP-1] | – | – | IC50 (β-galactosidase (β-Gal) [2]): ~1.6 µM; reduction of enzyme activity, PEP-1 by itself (β-galactosidase (β-Gal) [2]; 2 μM PEP-1 alone, 100 μM RBG, pH 7.4, 25 °C, 20 min preincubation): ~ 57% and 57%
YDTLHRNRQMMDWQFEPGSC [NEW-3] | ~ 86% | ~ 19% | –
